In PubChem BioAssay (NCI):
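GI50 is the concentration that inhibits growth by half. TGI: concentration producing complete growth inhibition.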

Experiments:
Assay in all cases: growth of human tumour cells (NCI), 384-well format
U251 glioblastoma = test system: U251 glioblastoma
NCI-H23 lung = test system: NCI-H23 lung
UACC-62 melanoma = test system: UACC-62 melanoma
MOLT-4 leukemia = test system: MOLT-4 leukemia
SK-OV-3 ovarian = test system: SK-OV-3 ovarian
OVCAR-8 ovarian = test system: OVCAR-8 ovarian
OVCAR-4 ovarian = test system: OVCAR-4 ovarian
RPMI-8226 leukemia = test system: RPMI-8226 leukemia
SK-MEL-5 melanoma = test system: SK-MEL-5 melanoma
SF-539 CNS = test system: SF-539 CNS
UACC-257 melanoma = test system: UACC-257 melanoma
SNB-75 CNS = test system: SNB-75 CNS
KM12 colon = test system: KM12 colon
SR leukemia = test system: SR leukemia
SW-620 colon = test system: SW-620 colon
RXF 393 renal = test system: RXF 393 renal
HCT-15 colon = test system: HCT-15 colon
786-0 renal = test system: 786-0 renal
HS 578T breast = test system: HS 578T breast
UO-31 renal = test system: UO-31 renal
HOP-62 NSCLC = test system: HOP-62 NSCLC
EKVX NSCLC = test system: EKVX NSCLC
IGROV1 ovarian = test system: IGROV1 ovarian
NCI-H226 lung = test system: NCI-H226 lung
CCRF-CEM leukemia = test system: CCRF-CEM leukemia
SNB-19 CNS = test system: SNB-19 CNS
NCI/ADR-RES ovarian = test system: NCI/ADR-RES ovarian
HOP-92 NSCLC = test system: HOP-92 NSCLC
HCT-116 colon = test system: HCT-116 colon
A498 renal = test system: A498 renal
BT-549 breast = test system: BT-549 breast
A549 NSCLC = test system: A549 NSCLC
MDA-MB-435 melanoma = test system: MDA-MB-435 melanoma
LOX IMVI melanoma = test system: LOX IMVI melanoma
TK-10 renal = test system: TK-10 renal
DU-145 prostate = test system: DU-145 prostate
ACHN renal = test system: ACHN renal
NCI-H460 NSCLC = test system: NCI-H460 NSCLC
HT29 colon = test system: HT29 colon
T-47D breast = test system: T-47D breast
COLO 205 colon = test system: COLO 205 colon
MCF7 breast = test system: MCF7 breast
HL-60(TB) leukemia = test system: HL-60(TB) leukemia
MALME-3M melanoma = test system: MALME-3M melanoma
MDA-MB-231 breast = test system: MDA-MB-231 breast
PC-3 prostate = test system: PC-3 prostate
HCC-2998 colon = test system: HCC-2998 colon

## COc1cc2c(Nc3cc(Cl)c(OC)c(Cl)c3)c(C#N)cnc2cc1OCCCN1CCN(C)CC1
U251 glioblastoma
  GI50: 1240 nM
  TGI: 2510 nM
NCI-H23 lung
  GI50: 401 nM
  TGI: 1480 nM
UACC-62 melanoma
  GI50: 1230 nM
  TGI: 2480 nM
MOLT-4 leukemia
  GI50: 163 nM
  TGI: 313 nM
SK-OV-3 ovarian
  GI50: 167 nM
  TGI: 1420 nM
OVCAR-8 ovarian
  GI50: 389 nM
  TGI: 1530 nM
OVCAR-4 ovarian
  GI50: 808 nM
  TGI: 2170 nM
RPMI-8226 leukemia
  GI50: 184 nM
  TGI: 366 nM
SK-MEL-5 melanoma
  GI50: 464 nM
  TGI: 1550 nM
SF-539 CNS
  GI50: 222 nM
  TGI: 484 nM
UACC-257 melanoma
  GI50: 538 nM
  TGI: 1640 nM
SNB-75 CNS
  GI50: 1270 nM
  TGI: 2540 nM
KM12 colon
  GI50: 412 nM
  TGI: 1580 nM
SR leukemia
  GI50: 195 nM
  TGI: 377 nM
SW-620 colon
  GI50: 1220 nM
  TGI: 2520 nM
RXF 393 renal
  GI50: 221 nM
  TGI: 677 nM
HCT-15 colon
  GI50: 878 nM
  TGI: 2170 nM
786-0 renal
  GI50: 672 nM
  TGI: 1990 nM
HS 578T breast
  GI50: 456 nM
  TGI: 1350 nM
UO-31 renal
  GI50: 605 nM
  TGI: 1850 nM
HOP-62 NSCLC
  GI50: 1090 nM
  TGI: 2440 nM
EKVX NSCLC
  GI50: 404 nM
  TGI: 1740 nM
IGROV1 ovarian
  GI50: 145 nM
  TGI: 1030 nM
NCI-H226 lung
  GI50: 1280 nM
  TGI: 2960 nM
CCRF-CEM leukemia
  GI50: 239 nM
  TGI: 486 nM
SNB-19 CNS
  GI50: 1710 nM
  TGI: 3630 nM
NCI/ADR-RES ovarian
  GI50: 1830 nM
  TGI: 3640 nM
HOP-92 NSCLC
  GI50: 465 nM
  TGI: 1490 nM
HCT-116 colon
  GI50: 329 nM
  TGI: 1200 nM
A498 renal
  GI50: 257 nM
  TGI: 1400 nM
BT-549 breast
  GI50: 785 nM
  TGI: 2080 nM
A549 NSCLC
  GI50: 1100 nM
  TGI: 2370 nM
MDA-MB-435 melanoma
  GI50: 256 nM
  TGI: 925 nM
LOX IMVI melanoma
  GI50: 1230 nM
  TGI: 2490 nM
TK-10 renal
  GI50: 381 nM
  TGI: 1620 nM
DU-145 prostate
  GI50: 843 nM
  TGI: 2290 nM
ACHN renal
  GI50: 257 nM
  TGI: 1500 nM
NCI-H460 NSCLC
  GI50: 1020 nM
  TGI: 2230 nM
HT29 colon
  GI50: 1630 nM
  TGI: 4360 nM
T-47D breast
  GI50: 1330 nM
  TGI: 2630 nM
COLO 205 colon
  GI50: 765 nM
  TGI: 2050 nM
MCF7 breast
  GI50: 451 nM
  TGI: 1860 nM
HL-60(TB) leukemia
  GI50: 795 nM
  TGI: 2060 nM
MALME-3M melanoma
  GI50: 296 nM
  TGI: 1160 nM
MDA-MB-231 breast
  GI50: 1360 nM
  TGI: 2920 nM
PC-3 prostate
  GI50: 1320 nM
  TGI: 2880 nM
HCC-2998 colon
  GI50: 1060 nM
  TGI: 2260 nM
